Data: ChEMBL document CHEMBL5303573, “Mapping human microbiome drug metabolism by gut bacteria and their genes” (Nature, 2019)

Legend:
[1] = The drug is tested on Bifidobacterium breve strain: DSM20213 for biotransformation. The drug concentrations were measured before and after a 12-h incubation by liquid-chromatography-coupled mass spectrometry (LC–MS); settings: 2 µM
[2] = The drug is tested on Bifidobacterium longum subsp. Infantis strain: CCUG52486 for biotransformation. The drug concentrations were measured before and after a 12-h incubation by liquid-chromatography-coupled mass spectrometry (LC–MS); settings: 2 µM
[3] = The drug is tested on Collinsella intestinalis strain: DSM13280 for biotransformation. The drug concentrations were measured before and after a 12-h incubation by liquid-chromatography-coupled mass spectrometry (LC–MS); settings: 2 µM
[4] = The drug is tested on Bacteroides caccae strain: ATCC43185 for biotransformation. The drug concentrations were measured before and after a 12-h incubation by liquid-chromatography-coupled mass spectrometry (LC–MS); settings: 2 µM
[5] = The drug is tested on Bacteroides pectinophilus strain: ATCC43243 for biotransformation. The drug concentrations were measured before and after a 12-h incubation by liquid-chromatography-coupled mass spectrometry (LC–MS); settings: 2 µM
[6] = The drug is tested on Odoribacter splanchnicus strain: fecal isolate for biotransformation. The drug concentrations were measured before and after a 12-h incubation by liquid-chromatography-coupled mass spectrometry (LC–MS); settings: 2 µM
[7] = The drug is tested on Clostridium asparagiforme strain: DSM15981 for biotransformation. The drug concentrations were measured before and after a 12-h incubation by liquid-chromatography-coupled mass spectrometry (LC–MS); assay type: ADME; parameters: dose 2 uM, timepoint 0 vs 12 hours; settings: enterocloster asparagiformis, 2 µM
[8] = The drug is tested on Clostridium scindens strain: ATCC35704 for biotransformation. The drug concentrations were measured before and after a 12-h incubation by liquid-chromatography-coupled mass spectrometry (LC–MS); settings: 2 µM
[9] = The drug is tested on Eubacterium hallii strain: DSM3353 for biotransformation. The drug concentrations were measured before and after a 12-h incubation by liquid-chromatography-coupled mass spectrometry (LC–MS); settings: anaerobutyricum hallii, 2 µM
[10] = The drug is tested on Enterobacter cancerogenus strain: ATCC35316 for biotransformation. The drug concentrations were measured before and after a 12-h incubation by liquid-chromatography-coupled mass spectrometry (LC–MS); settings: 2 µM
[11] = bifidobacterium adolescentis, 12 h, 2 µM
Description: The drug is tested on Bifidobacterium adolescentis strain: ATCC 15703 for biotransformation. The drug concentrations were measured before and after a 12-h incubation by liquid-chromatography-coupled mass spectrometry (LC–MS)

[12] = bacteroides intestinalis, 12 h, 2 µM
Description: The drug is tested on Bacteroides intestinalis strain: DSM17393 for biotransformation. The drug concentrations were measured before and after a 12-h incubation by liquid-chromatography-coupled mass spectrometry (LC–MS)

[13] = bacteroides stercoris, 12 h, 2 µM
Description: The drug is tested on Bacteroides stercoris strain: ATCC43183 for biotransformation. The drug concentrations were measured before and after a 12-h incubation by liquid-chromatography-coupled mass spectrometry (LC–MS)

[14] = parabacteroides distasonis, 12 h, 2 µM
Description: The drug is tested on Parabacteroides distasonis strain: ATCC8503 for biotransformation. The drug concentrations were measured before and after a 12-h incubation by liquid-chromatography-coupled mass spectrometry (LC–MS)

[15] = The drug is tested on Bacteroides fragilis strain: HMW610 for biotransformation. The drug concentrations were measured before and after a 12-h incubation by liquid-chromatography-coupled mass spectrometry (LC–MS); settings: 2 µM
[16] = The drug is tested on Escherichia coli strain: BW25113 for biotransformation. The drug concentrations were measured before and after a 12-h incubation by liquid-chromatography-coupled mass spectrometry (LC–MS); settings: 2 µM
[17] = bacteroides thetaiotaomicron, 12 h, 2 µM
Description: The drug is tested on Bacteroides thetaiotaomicron strain: VPI-5482 for biotransformation. The drug concentrations were measured before and after a 12-h incubation by liquid-chromatography-coupled mass spectrometry (LC–MS)

[18] = bacteroides thetaiotaomicron, 12 h, 2 µM; remark: listed apart in the source
Description: The drug is tested on Bacteroides thetaiotaomicron strain: 3731 for biotransformation. The drug concentrations were measured before and after a 12-h incubation by liquid-chromatography-coupled mass spectrometry (LC–MS)

[19] = limosilactobacillus reuteri cf48-3a, 12 h, 2 µM
Description: The drug is tested on Lactobacillus reuteri CF48-3A strain: BEI HM-102 for biotransformation. The drug concentrations were measured before and after a 12-h incubation by liquid-chromatography-coupled mass spectrometry (LC–MS)

[20] = The drug is tested on Bifidobacterium ruminantium strain: fecal isolate for biotransformation. The drug concentrations were measured before and after a 12-h incubation by liquid-chromatography-coupled mass spectrometry (LC–MS); settings: 2 µM

Row | Compound | Bacterial Biotransformation [1] | Bacterial Biotransformation [2] | Bacterial Biotransformation [3] | Bacterial Biotransformation [4] | Bacterial Biotransformation [5] | Bacterial Biotransformation [6] | Bacterial Biotransformation [7] | Bacterial Biotransformation [8] | Bacterial Biotransformation [9] | Bacterial Biotransformation [10] | Bacterial Biotransformation [11] | Bacterial Biotransformation [12] | Bacterial Biotransformation [13] | Bacterial Biotransformation [14] | Bacterial Biotransformation [15] | Bacterial Biotransformation [16] | Bacterial Biotransformation [17] | Bacterial Biotransformation [18] | Bacterial Biotransformation [19] | Bacterial Biotransformation [20]
1 | CC(C)NCC(O)COc1ccc(CCOCC2CC2)cc1 (stereo unspecified) [BETAXOLOL] | Compound NOT metabolized | Compound NOT metabolized | Compound NOT metabolized | Compound NOT metabolized | Compound NOT metabolized | Compound NOT metabolized | Compound NOT metabolized | Compound NOT metabolized | Compound NOT metabolized | – | Compound NOT metabolized | Compound NOT metabolized | Compound NOT metabolized | – | Compound NOT metabolized | Compound NOT metabolized | Compound NOT metabolized | Compound NOT metabolized | Compound NOT metabolized | –
2 | CN(C)CCOC(c1ccc(Cl)cc1)c1ccccn1.O=C(O)/C=C\C(=O)O (stereo unspecified) [CARBINOXAMINE MALEATE] | Compound NOT metabolized | Compound NOT metabolized | Compound NOT metabolized | Compound NOT metabolized | Compound NOT metabolized | Compound NOT metabolized | Compound NOT metabolized | Compound NOT metabolized | Compound NOT metabolized | Compound NOT metabolized | Compound NOT metabolized | Compound NOT metabolized | Compound NOT metabolized | Compound NOT metabolized | – | – | Compound NOT metabolized | Compound NOT metabolized | – | –
3 | c1ccc([C@H]2CN3CCSC3=N2)cc1 [LEVAMISOLE] | Compound metabolized | Compound NOT metabolized | Compound NOT metabolized | Compound metabolized | – | Compound metabolized | Compound metabolized | Compound metabolized | Compound NOT metabolized | – | Compound NOT metabolized | Compound metabolized | Compound metabolized | Compound metabolized | Compound metabolized | Compound metabolized | Compound metabolized | Compound NOT metabolized | – | Compound NOT metabolized
4 | Nc1ccc(/N=N/c2ccccc2)c(N)n1 [PHENAZOPYRIDINE] | Compound metabolized | – | Compound metabolized | Compound metabolized | Compound NOT metabolized | Compound metabolized | Compound metabolized | Compound metabolized | Compound metabolized | – | – | Compound metabolized | – | Compound metabolized | Compound metabolized | – | Compound metabolized | Compound metabolized | Compound NOT metabolized | Compound metabolized
5 | O=C(O)c1cc(/N=N/c2ccc(S(=O)(=O)Nc3ccccn3)cc2)ccc1O [SULFASALAZINE] | Compound metabolized | Compound metabolized | Compound metabolized | Compound metabolized | Compound NOT metabolized | Compound metabolized | Compound metabolized | Compound metabolized | Compound metabolized | – | Compound metabolized | Compound metabolized | Compound metabolized | Compound metabolized | Compound metabolized | Compound metabolized | Compound metabolized | Compound metabolized | Compound metabolized | Compound metabolized
6 | CCOC(=O)[C@H](CCc1ccccc1)N[C@@H](C)C(=O)N1[C@H](C(=O)O)C[C@H]2CCCC[C@@H]21 [TRANDOLAPRIL] | Compound metabolized | Compound NOT metabolized | – | Compound NOT metabolized | – | Compound metabolized | Compound NOT metabolized | Compound NOT metabolized | Compound NOT metabolized | Compound NOT metabolized | Compound NOT metabolized | Compound NOT metabolized | – | Compound metabolized | – | – | – | – | Compound NOT metabolized | Compound metabolized

Now from value to molecule:

Row | Bacterial Biotransformation [1] | Bacterial Biotransformation [2] | Bacterial Biotransformation [3] | Bacterial Biotransformation [4] | Bacterial Biotransformation [5] | Bacterial Biotransformation [6] | Bacterial Biotransformation [7] | Bacterial Biotransformation [8] | Bacterial Biotransformation [9] | Bacterial Biotransformation [10] | Bacterial Biotransformation [11] | Bacterial Biotransformation [12] | Bacterial Biotransformation [13] | Bacterial Biotransformation [14] | Bacterial Biotransformation [15] | Bacterial Biotransformation [16] | Bacterial Biotransformation [17] | Bacterial Biotransformation [18] | Bacterial Biotransformation [19] | Bacterial Biotransformation [20] | Compound
7 | Compound NOT metabolized | Compound NOT metabolized | Compound NOT metabolized | Compound NOT metabolized | Compound NOT metabolized | Compound NOT metabolized | Compound NOT metabolized | Compound NOT metabolized | Compound NOT metabolized | Compound NOT metabolized | Compound NOT metabolized | Compound NOT metabolized | Compound NOT metabolized | Compound NOT metabolized | – | – | – | – | – | – | CN(C)CCc1c[nH]c2ccc(CS(=O)(=O)N3CCCC3)cc12 [ALMOTRIPTAN]
8 | Compound NOT metabolized | Compound NOT metabolized | Compound NOT metabolized | Compound NOT metabolized | Compound NOT metabolized | – | Compound NOT metabolized | Compound NOT metabolized | Compound NOT metabolized | – | Compound NOT metabolized | Compound NOT metabolized | Compound NOT metabolized | – | Compound NOT metabolized | Compound NOT metabolized | Compound NOT metabolized | Compound NOT metabolized | Compound NOT metabolized | Compound NOT metabolized | Br.CN(C)CCCC1(c2ccc(F)cc2)OCc2cc(C#N)ccc21 (stereo unspecified) [CITALOPRAM HYDROBROMIDE]
9 | Compound NOT metabolized | Compound NOT metabolized | Compound NOT metabolized | – | Compound metabolized | Compound metabolized | Compound NOT metabolized | Compound NOT metabolized | Compound NOT metabolized | – | – | Compound NOT metabolized | Compound metabolized | Compound metabolized | Compound metabolized | Compound metabolized | Compound NOT metabolized | – | Compound NOT metabolized | – | CN1CCC[C@@H]1CCO[C@](C)(c1ccccc1)c1ccc(Cl)cc1.O=C(O)/C=C/C(=O)O [CLEMASTINE FUMARATE]
10 | Compound metabolized | Compound metabolized | Compound metabolized | Compound metabolized | Compound metabolized | Compound metabolized | Compound metabolized | Compound metabolized | Compound metabolized | – | Compound metabolized | Compound metabolized | Compound metabolized | Compound metabolized | Compound metabolized | – | Compound metabolized | Compound metabolized | Compound metabolized | Compound metabolized | CC(=O)Nc1ccc(OC(C)=O)cc1 [DIACETAMATE]
